# Structures can show the parent of a compound that is named as a salt.
# Biological target: human recombinant ATX (Homo sapiens (Human), UniProt Q13822)
# Experiment: Autotaxin (ATX) activity Quanta Red assay
# Type: biochemical
# Settings: 15 μM Rac-1-Palmitoyl-glycero-3-phosphocholine, 2 hours room temperature, determined in duplicate
# Method: The ATX enzyme assay (Quanta Red assay) described in accompanying Example section may be used to measure the pharmacological effects of the compounds of the present invention.
# Autotaxin (ATX) Activity Quanta Red Assay
# Measuring ATX activity using an enzyme coupled Quanta Red assay (Thermo Scientific—Pierce Protein Research Products, Product #15159) was determined as follows. 8 μL human recombinant ATX (final concentration 0.8 μg/mL) in 1× Assay buffer containing 50 mM Tris-HCl (pH 8.0), 5 mM CaCl2 was added to an opaque black flat-bottom 384-well plate (Corning, #3575) containing 2 μL test compound in 40% DMSO (4% final DMSO concentration). 10 μL of Quanta Red, Horseradish peroxidase (HRP), Choline Oxidase (CO), Rac-1-Palmitoyl-glycero-3-phosphocholine solution (final concentration 1:250 for Quanta Red, 0.5units/ml HRP, 0.5units/ml CO, 15 μM Rac-1-Palmitoyl-glycero-3-phosphocholine) in 1× assay buffer (as described previously) was added to each well to start the reaction and the plate was incubated at room temperature for 2 hours. The reaction was stopped after 2 hours with a 20 μL addition of Quanta Red Stop solution (1:20 dilution in distilled water). The above-described mixture with DMSO alone was used as a positive control whereas that with DMSO alone without ATX was taken as a negative control.
# For each test compound, ten concentrations were measured covering a range of 6.1 nM to 120 μM to determine IC50 values. The top concentration was decreased to 1.2 μM when a test compound's IC50 value was evaluated in low nanomolar range. Fluorescence was determined in a BMG Labtech Pherastar plus plate reader ([…]). Data were analysed using Excel fit software. IC50 values were determined in duplicate.
row,IC50 [nM],SMILES
1,37,"O=C(Nc1nnc(CCc2ccc(Cl)cc2)s1)[C@@H]1CC(=O)N(c2ccc(CN3CCOCC3)cc2)C1 [Compound F161, (3R)-N-[5-[2-(4-chlorophenyl)ethyl]-1,3,4-thiadiazol-2-yl]-1-[4-(morpholinomethyl)phenyl]-5-oxo-pyrrolidine-3-carboxamide]"
2,37,"O=C(Nc1ccc(CCc2ccccc2)nn1)C1CC(=O)N(c2ccc(CN3CCOCC3)cc2)C1 (centres unmarked) [Compound F162, 1-[4-(morpholinomethyl)phenyl]-5-oxo-N-[6-(2-phenylethyl)pyridazin-3-yl]pyrrolidine-3-carboxamide]"
3,49,"O=C(Nc1nnc(CCc2ccc(Cl)cc2)s1)[C@@H]1CC(=O)N(c2ccc(CN3CCCCC3)cc2)C1 [Compound F163, (3R)-N-[5-[2-(4-chlorophenyl)ethyl]-1,3,4-thiadiazol-2-yl]-5-oxo-1-[4-(1-piperidylmethyl)phenyl] pyrrolidine-3-carboxamide]"
4,70,"O=C(Nc1nnc(CCC2CCCCO2)s1)[C@H]1CC(=O)N(c2ccc(CN3CCCCC3)cc2)C1 (stereo partly drawn) [Compound F164, (3S)-5-oxo-1-[4-(1-piperidylmethyl)phenyl]-N-[5-(2-tetrahydropyran-2-ylethyl)-1,3,4-thiadiazol-2-yl]pyrrolidine-3-carboxamide]"
5,95,"O=C(Nc1nnc(CCC2CCCCO2)s1)[C@H]1CC(=O)N(c2ccc(CN3CCOCC3)cc2)C1 (stereo partly drawn) [Compound F165, (3S)-1-[4-(morpholinomethyl)phenyl]-5-oxo-N-[5-(2-tetrahydropyran-2-ylethyl)-1,3,4-thiadiazol-2-yl]pyrrolidine-3-carboxamide]"
6,16,"O=C(Nc1nnc(CCC2CCCC2)s1)C1CC(=O)N(c2ccc(CN3CCCCC3)cc2)C1 (centres unmarked) [Compound F166, N-[5-(2-cyclopentylethyl)-1,3,4-thiadiazol-2-yl]-5-oxo-1-[4-(1-piperidylmethyl)phenyl] pyrrolidine-3-carboxamide]"
7,17,"O=C(NC1CC(=O)N(c2ccc(CN3CCCCC3)cc2)C1)c1nnc(CCc2ccc(F)cc2)s1 (centres unmarked) [Compound F168, 5-[2-(4-fluorophenyl)ethyl]-N-[5-oxo-1-[4-(1-piperidylmethyl)phenyl]pyrrolidin-3-yl]-1,3,4-thiadiazole-2-carboxamide]"
8,22,"CC1(O)CCN(Cc2ccc(N3C[C@H](NC(=O)c4nnc(CCc5ccc(Cl)cc5)s4)CC3=O)cc2)CC1 [Compound F169, 5-[2-(4-chlorophenyl)ethyl]-N-[(3R)-1-[4-[(4-hydroxy-4-methyl-1-piperidyl)methyl]phenyl]-5-oxo-pyrrolidin-3-yl]-1,3,4-thiadiazole-2-carboxamide]"
9,58,"CC(C)(O)CCNCc1ccc(N2C[C@H](NC(=O)c3nnc(CCc4ccc(Cl)cc4)s3)CC2=O)cc1 [Compound F170, 5-[2-(4-chlorophenyl)ethyl]-N-[(3R)-1-[4-[[(3-hydroxy-3-methyl-butyl)amino]methyl]phenyl]-5-oxo-pyrrolidin-3-yl]-1,3,4-thiadiazole-2-carboxamide hydrochloride]"

# The remaining lines, values behind:
row,SMILES,IC50 [nM]
1,"O=C(NC1CC(=O)N(c2ccc(CN3CCCCC3)cc2)C1)c1cc(CCc2ccc(Cl)cc2)on1 (centres unmarked) [Compound F144, 5-[2-(4-chlorophenyl)ethyl]-N-[5-oxo-1-[4-(1-piperidylmethyl)phenyl]pyrrolidin-3-yl]isoxazole-3-carboxamide]",2
2,"O=C(N[C@H]1CC(=O)N(c2ccc(CN3CCCCC3)cc2)C1)c1cc(CCc2ccc(Cl)cc2)on1 [Compound F145, 5-[2-(4-chlorophenyl)ethyl]-N-[(3S)-5-oxo-1-[4-(1-piperidylmethyl)phenyl]pyrrolidin-3-yl]isoxazole-3-carboxamide]",3
3,"O=C(Nc1nnc(CCC2CCCCC2)s1)C1CC(=O)N(c2ccc(CN3CCOCC3)cc2)C1 (centres unmarked) [Compound F147, N-[5-(2-cyclohexylethyl)-1,3,4-thiadiazol-2-yl]-1-[4-(morpholinomethyl)phenyl]-5-oxo-pyrrolidine-3-carboxamide]",2
4,"CN(Cc1ccc(N2C[C@@H](C(=O)Nc3ccc(CCc4ccc(F)cc4)nn3)CC2=O)cc1)C1CCOC1 (stereo partly drawn) [Compound F148, (3S)-N-[6-[2-(4-fluorophenyl)ethyl]pyridazin-3-yl]-1-[4-[[methyl(tetrahydrofuran-3-yl)amino]methyl]phenyl]-5-oxo-pyrrolidine-3-carboxamide]",6
5,"O=C(Nc1ccc(CCc2ccc(F)cc2)nn1)C1CC(=O)N(c2ccc(CN3CCOCC3)cc2)C1 (centres unmarked) [Compound F149, 1-(4-morpholin-4-ylmethyl-phenyl)-5-oxo-pyrrolidine-3-carboxylic acid {6-[2-(4-fluoro-phenyl)-ethyl]-pyridazin-3-yl}-amide]",7
6,"COc1ccc(CCc2nnc(NC(=O)C3CC(=O)N(c4ccc(CN5CCOCC5)cc4)C3)s2)cc1 (centres unmarked) [Compound F150, N-[5-[2-(4-methoxyphenyl)ethyl]-1,3,4-thiadiazol-2-yl]-1-[4-(morpholinomethyl)phenyl]-5-oxo-pyrrolidine-3-carboxamide]",8
7,"O=C(Nc1nnc(CCc2ccc(Cl)cc2)s1)C1CC(=O)N(c2ccc(CN3CCCC3)cc2)C1 (centres unmarked) [Compound F151, N-[5-[2-(4-chlorophenyl)ethyl]-1,3,4-thiadiazol-2-yl]-5-oxo-1-[4-(pyrrolidin-1-ylmethyl)phenyl] pyrrolidine-3-carboxamide]",9
8,"CN(Cc1ccc(N2C[C@@H](C(=O)Nc3cc(CCc4ccc(Cl)cc4)on3)CC2=O)cc1)C1CCOC1 (stereo partly drawn) [Compound F152, (3S)-N-[5-[2-(4-chlorophenyl)ethyl]isoxazol-3-yl]-1-[4-[[methyl(tetrahydrofuran-3-yl)amino]methyl]phenyl]-5-oxo-pyrrolidine-3-carboxamide]",2
9,"O=C1CC(CNc2nnc(CCc3ccc(Cl)cc3)s2)CN1c1ccc(CN2CCOCC2)cc1 (centres unmarked) [Compound F153, 4-({5-[2-(4-Chloro-phenyl)-ethyl]-[1,3,4]thiadiazol-2-ylamino}-methyl)-1-(4-morpholin-4-ylmethyl-phenyl)-pyrrolidin-2-one]",2
10,"O=C(Nc1nnc(SCc2ccc(F)cc2)s1)C1CC(=O)N(c2ccc(CN3CCOCC3)cc2)C1 (centres unmarked) [Compound F154, 1-(4-morpholin-4-ylmethyl-phenyl)-5-oxo-pyrrolidine-3-carboxylic acid [5-(4-fluoro-benzylsulfanyl)-[1,3,4]thiadiazol-2-yl]-amide]",3
11,"CN(Cc1ccc(N2C[C@@H](C(=O)Nc3ccc(CCc4ccc(F)cc4)nn3)CC2=O)cc1)C1COC1 [Compound F155, (3S)-N-[6-[2-(4-fluorophenyl)ethyl]pyridazin-3-yl]-1-[4-[[methyl(oxetan-3-yl)amino]methyl]phenyl]-5-oxo-pyrrolidine-3-carboxamide]",11
12,"O=C(Nc1nnc(CCc2ccc(Cl)cc2)s1)C1CC(=O)N(c2ccc(CN3CCCNCC3)cc2)C1 (centres unmarked) [Compound F156, 1-(4-[1,4]Diazepan-1-ylmethyl-phenyl)-5-oxo-pyrrolidine-3-carboxylic acid {5-[2-(4-chloro-phenyl)-ethyl]-[1,3,4]thiadiazol-2-yl}-amide; dihydrochloride]",14
13,"CC(C)(C)OC(=O)N1CCN(Cc2ccc(N3CC(C(=O)Nc4nnc(CCc5ccc(Cl)cc5)s4)CC3=O)cc2)CC1 (centres unmarked) [Compound F157, tert-butyl 4-[[4-[4-[[5-[2-(4-chlorophenyl)ethyl]-1,3,4-thiadiazol-2-yl]carbamoyl]-2-oxo-pyrrolidin-1-yl]phenyl]methyl] piperazine-1-carboxylate]",15
14,"O=C(Nc1cc(CCc2ccccc2)on1)C1CC(=O)N(c2ccc(CN3CCOCC3)cc2)C1 (centres unmarked) [Compound F158, 1-[4-(morpholinomethyl)phenyl]-5-oxo-N-[5-(2-phenylethyl)isoxazol-3-yl]pyrrolidine-3-carboxamide]",17
15,"CC(C)N(C)Cc1ccc(N2CC(C(=O)Nc3nnc(CCc4ccc(Cl)cc4)s3)CC2=O)cc1 (centres unmarked) [Compound F159, N-[5-[2-(4-chlorophenyl)ethyl]-1,3,4-thiadiazol-2-yl]-1-[4-[[isopropyl (methyl)amino]methyl]phenyl]-5-oxo-pyrrolidine-3-carboxamide]",18
16,"O=C(Nc1nnc(CCc2ccc(Cl)cc2)s1)C1CC(=O)N(c2ccc(CN3CCNCC3)cc2)C1 (centres unmarked) [Compound F160, 5-Oxo-1-(4-piperazin-1-ylmethyl-phenyl)-pyrrolidine-3-carboxylic acid {5-[2-(4-chloro-phenyl)-ethyl]-[1,3,4]thiadiazol-2-yl}-amide; dihydrochloride]",24
17,"O=C(N[C@H]1CCN(c2ccc(CN3CCOCC3)cc2)C1)c1nnc(CCc2ccc(Cl)cc2)s1 [Compound F167, 5-[2-(4-Chloro-phenyl)-ethyl]-[1,3,4]thiadiazole-2-carboxylic acid [(S)-1-(4-morpholin-4-ylmethyl-phenyl)-pyrrolidin-3-yl]-amide]",16

# — patent publication US10138230B2, “Autotaxin inhibitors” (CANCER RESEARCH TECHNOLOGY LIMITED, priority 2015, dated 2018)
